Data reported in US10875832B2, “Substituted pyrimidines for treating bacterial infections” (FORGE THERAPEUTICS, INC., priority 2015, dated 2020).
Converted amounts (≈) assume the structure as drawn.

Tests used:
Assay type in all cases: cell-based
[1] = system: E. coli imp mutant; assay: MIC by broth microdilution, E. coli imp mutant; conditions: Escherichia coli, read-out: MIC E. coli imp mutant
Method: (§1) Minimal inhibitory concentrations (MIC) were determined by the broth microdilution method in accordance with the Clinical and Laboratory Standards Institute (CLSI) guidelines. In brief, organism suspensions were adjusted to a 0.5 McFarland standard to yield a final inoculum between 3×10^5 and 7×10^5 colony-forming units (CFU)/mL. Drug dilutions and inocula were made in sterile, cation adjusted Mueller-Hinton Broth (Beckton Dickinson). An inoculum volume of 100 μL was added to wells containing 100 μL of broth with 2-fold serial dilutions of drug. All inoculated microdilution trays were incubated in ambient air at 35° C. for 18-24 h. […] Performance of the assay was monitored by the use of laboratory quality-control strains and levofloxacin, a compound with a defined MIC spectrum, in accordance with CLSI guidelines.

[2] = system: P. aeruginosa 210 delta mexAB-OprM; assay: MIC by broth microdilution, P. aeruginosa 210 delta mexAB-OprM; conditions: Pseudomonas aeruginosa, read-out: MIC P. aeruginosa 210 delta mexAB-OprM
Method: as §1

[3] = system: S. aureus ATCC 29213; assay: MIC by broth microdilution, S. aureus ATCC 29213; conditions: Staphylococcus aureus, ATCC29213; 35° C., 18-24 h
Method: as §1

[4] = system: E. coli BW25113; assay: MIC by broth microdilution, E. coli BW25113, no FBS; conditions: Escherichia coli, 35° C., 18-24 h
Method: as §1

[5] = system: P. aeruginosa 209; assay: MIC by broth microdilution, P. aeruginosa 209; conditions: Pseudomonas aeruginosa, 35° C., 18-24 h
Method: as §1

[6] = system: E. coli ATCC 25922; assay: MIC by broth microdilution, E. coli ATCC 25922, no FBS; conditions: Escherichia coli, ATCC25922, 35° C., 18-24 h
Method: as §1

[7] = system: E. coli delta to IC mutant; assay: MIC by broth microdilution, E. coli delta tolC mutant; conditions: Escherichia coli, read-out: MIC E. coli delta to IC mutant
Method: as §1

Row | SMILES | MIC [1] | MIC [2] | MIC [3] | MIC [4] | MIC [5] | MIC [6] | MIC [7]
1 | CS(=O)(=O)Cc1nc(COc2ccc(C#CC#Cc3ccccc3)cc2)[nH]c(=O)c1O [Compound 70, 5-hydroxy-6-((methylsulfonyl)methyl)-2-((4-(phenylbuta-1,3-diyn-1-yl)phenoxy)methyl)pyrimidin-4(3H)-one] | 1 to 8 µg/mL (≈ 2.3 to 18.4 µM) | > 32 µg/mL | 8 to 32 µg/mL (≈ 18.4 to 73.7 µM) | > 32 µg/mL | > 32 µg/mL | > 32 µg/mL | 8 to 32 µg/mL (≈ 18.4 to 73.7 µM)
2 | COC(=O)c1ccc(C#CC#Cc2ccc(NCc3nc[nH]c(=O)c3O)cc2)cc1 [Compound 71, Methyl 4-((4-(((5-hydroxy-6-oxo-1,6-dihydropyrimidin-4-yl)methyl)amino)phenyl)buta-1,3-diyn-1-yl)benzoate] | > 32 µg/mL | > 32 µg/mL | > 32 µg/mL | > 32 µg/mL | > 32 µg/mL | > 32 µg/mL | > 32 µg/mL
3 | CNC(=O)c1ccc(C#CC#Cc2ccc(NCc3nc[nH]c(=O)c3O)cc2)cc1 [Compound 72, 4-((4-(((5-hydroxy-6-oxo-1,6-dihydropyrimidin-4-yl)methyl)amino)phenyl)buta-1,3-diyn-1-yl)-N-methylbenzamide] | < 1 µg/mL | > 32 µg/mL | > 32 µg/mL | < 1 µg/mL | > 32 µg/mL | < 1 µg/mL | < 1 µg/mL
4 | O=c1c(O)cncn1CCc1ccc(C#Cc2ccc(CN3CCOCC3)cc2)cc1 [Compound 73, 5-hydroxy-3-(4-((4-(morpholinomethyl)phenyl)ethynyl)phenethyl)-pyrimidin-4(3H)-one] | – | > 32 µg/mL | > 32 µg/mL | 1 to 8 µg/mL (≈ 2.41 to 19.3 µM) | > 32 µg/mL | – | –
5 | CN(C)C1CCN(C(=O)c2ccc(C#CC#Cc3ccc(NCc4nc[nH]c(=O)c4O)cc3)cc2)CC1 [Compound 74] | 1 to 8 µg/mL (≈ 2.02 to 16.1 µM) | > 32 µg/mL | > 32 µg/mL | 1 to 8 µg/mL (≈ 2.02 to 16.1 µM) | > 32 µg/mL | 8 to 32 µg/mL (≈ 16.1 to 64.6 µM) | < 1 µg/mL
6 | O=C(NCCN1CCCC1)c1ccc(C#CC#Cc2ccc(NCc3nc[nH]c(=O)c3O)cc2)cc1 [Compound 75] | 1 to 8 µg/mL (≈ 2.08 to 16.6 µM) | > 32 µg/mL | > 32 µg/mL | 1 to 8 µg/mL (≈ 2.08 to 16.6 µM) | > 32 µg/mL | 8 to 32 µg/mL (≈ 16.6 to 66.5 µM) | < 1 µg/mL
7 | CCN(CC)CCCNC(=O)c1ccc(C#CC#Cc2ccc(NCc3nc[nH]c(=O)c3O)cc2)cc1 [Compound 76] | 1 to 8 µg/mL (≈ 2.01 to 16.1 µM) | > 32 µg/mL | > 32 µg/mL | 1 to 8 µg/mL (≈ 2.01 to 16.1 µM) | > 32 µg/mL | 8 to 32 µg/mL (≈ 16.1 to 64.3 µM) | < 1 µg/mL
8 | O=C(c1ccc(C#CC#Cc2ccc(NCc3nc[nH]c(=O)c3O)cc2)cc1)N1CCC(N2CCOCC2)CC1 [Compound 78] | < 1 µg/mL | > 32 µg/mL | > 32 µg/mL | 1 to 8 µg/mL (≈ 1.86 to 14.9 µM) | > 32 µg/mL | > 32 µg/mL | < 1 µg/mL
9 | Cc1nc(C(=O)O)c(O)c(=O)n1CC(=O)c1ccc(-c2ccccc2)cc1 [Compound 82, 1-(2-([1,1′-biphenyl]-4-yl)-2-oxoethyl)-5-hydroxy-2-methyl-6-oxo-1,6-dihydro pyrimidine-4-carboxylic acid] | 1 to 8 µg/mL (≈ 2.74 to 22 µM) | > 32 µg/mL | > 32 µg/mL | > 32 µg/mL | > 32 µg/mL | > 32 µg/mL | 8 to 32 µg/mL (≈ 22 to 87.8 µM)
10 | Cc1nc(C(=O)O)c(O)c(=O)n1CC(O)c1ccc(-c2ccccc2)cc1 (stereo not drawn) [Compound 83, 1-(2-([1,1′-biphenyl]-4-yl)-2-hydroxyethyl)-5-hydroxy-2-methyl-6-oxo-1,6-dihydro pyrimidine-4-carboxylic acid] | 1 to 8 µg/mL (≈ 2.73 to 21.8 µM) | > 32 µg/mL | > 32 µg/mL | > 32 µg/mL | > 32 µg/mL | > 32 µg/mL | 8 to 32 µg/mL (≈ 21.8 to 87.3 µM)
11 | CCOC(=O)c1nc(C)n(CC(=O)c2ccc(-c3ccccc3)cc2)c(=O)c1O [Compound 84, ethyl 1-(2-([1,1′-biphenyl]-4-yl)-2-oxoethyl)-5-hydroxy-2-methyl-6-oxo-1,6-dihydropyrimidine-4-carboxylate] | > 32 µg/mL | > 32 µg/mL | > 32 µg/mL | > 32 µg/mL | > 32 µg/mL | > 32 µg/mL | > 32 µg/mL
12 | O=C(c1ccc(C#CC#Cc2ccc(NCc3nc[nH]c(=O)c3O)cc2)cc1)N1CC(O)C1 [Compound 86] | < 1 µg/mL | > 32 µg/mL | > 32 µg/mL | < 1 µg/mL | > 32 µg/mL | < 1 µg/mL | < 1 µg/mL
13 | O=C(O)c1ccc(C#CC#Cc2ccc(NCc3nc[nH]c(=O)c3O)cc2)cc1 [Compound 87] | 1 to 8 µg/mL (≈ 2.59 to 20.8 µM) | > 32 µg/mL | > 32 µg/mL | 1 to 8 µg/mL (≈ 2.59 to 20.8 µM) | > 32 µg/mL | 1 to 8 µg/mL (≈ 2.59 to 20.8 µM) | < 1 µg/mL
14 | O=C(NCCO)c1ccc(C#CC#Cc2ccc(NCc3nc[nH]c(=O)c3O)cc2)cc1 [Compound 88] | < 1 µg/mL | > 32 µg/mL | > 32 µg/mL | < 1 µg/mL | > 32 µg/mL | < 1 µg/mL | < 1 µg/mL
15 | CCOC(=O)c1nc(C)n(CC(O)c2ccc(C#Cc3ccccc3)cc2)c(=O)c1O (stereo not drawn) [Compound 89] | 8 to 32 µg/mL (≈ 19.1 to 76.5 µM) | > 32 µg/mL | 8 to 32 µg/mL (≈ 19.1 to 76.5 µM) | > 32 µg/mL | > 32 µg/mL | > 32 µg/mL | > 32 µg/mL
16 | Cc1nc(C(=O)O)c(O)c(=O)n1CC(O)c1ccc(C#Cc2ccccc2)cc1 (stereo not drawn) [Compound 90] | 1 to 8 µg/mL (≈ 2.56 to 20.5 µM) | > 32 µg/mL | > 32 µg/mL | > 32 µg/mL | > 32 µg/mL | > 32 µg/mL | 8 to 32 µg/mL (≈ 20.5 to 82 µM)
17 | CNC(=O)c1nc(C)n(CC(O)c2ccc(-c3ccccc3)cc2)c(=O)c1O (stereo not drawn) [Compound 91, 1-(2-([1,1′-biphenyl]-4-yl)-2-hydroxyethyl)-5-hydroxy-N,2-dimethyl-6-oxo-1,6-dihydropyrimidine-4-carboxamide] | > 32 µg/mL | > 32 µg/mL | 8 to 32 µg/mL (≈ 21.1 to 84.3 µM) | > 32 µg/mL | > 32 µg/mL | > 32 µg/mL | 8 to 32 µg/mL (≈ 21.1 to 84.3 µM)
18 | Cc1nc(CO)c(O)c(=O)n1CC(O)c1ccc(-c2ccccc2)cc1 (stereo not drawn) [Compound 92] | – | – | > 32 µg/mL | – | > 32 µg/mL | > 32 µg/mL | –
19 | Cc1nc(C(=O)O)c(O)c(=O)n1CC(O)c1ccc(C#Cc2ccc(CN3CCOCC3)cc2)cc1 (stereo not drawn) [Compound 93] | > 32 µg/mL | > 32 µg/mL | > 32 µg/mL | > 32 µg/mL | > 32 µg/mL | > 32 µg/mL | > 32 µg/mL
20 | Cn1cc(O)c(=O)cc1CNC(=O)c1ccc(C#Cc2ccccc2)cc1 [Compound 94] | > 32 µg/mL | > 32 µg/mL | > 32 µg/mL | > 32 µg/mL | > 32 µg/mL | > 32 µg/mL | > 32 µg/mL
21 | Cc1nc(C(=O)O)c(O)c(=O)n1C/C(=N/O)c1ccc(-c2ccccc2)cc1 [Compound 95, (E)-1-(2-([1,1′-biphenyl]-4-yl)-2-(hydroxyimino)ethyl)-5-hydroxy-2-methyl-6-oxo-1,6-dihydropyrimidine-4-carboxylic acid] | 8 to 32 µg/mL (≈ 21.1 to 84.3 µM) | > 32 µg/mL | > 32 µg/mL | > 32 µg/mL | > 32 µg/mL | > 32 µg/mL | > 32 µg/mL
22 | O=c1[nH]cnc(CNc2ccc(-c3ccccc3)cc2)c1O [Compound 96] | > 32 µg/mL | > 32 µg/mL | > 32 µg/mL | > 32 µg/mL | > 32 µg/mL | > 32 µg/mL | > 32 µg/mL
23 | O=c1[nH]cnc(CCc2ccc(C#Cc3ccc(CN4CCOCC4)cc3)cc2)c1O [Compound 104, 5-hydroxy-6-(4-((4-(morpholinomethyl)phenyl)ethynyl)phenethyl)pyrimidin-4(3H)-one] | 8 to 32 µg/mL (≈ 19.3 to 77 µM) | – | – | – | – | 8 to 32 µg/mL (≈ 19.3 to 77 µM) | 1 to 8 µg/mL (≈ 2.41 to 19.3 µM)
24 | O=c1c(O)cncn1CCc1ccc(C#Cc2ccc(CN3CCOCC3)cc2)cc1 [Compound 105, 5-hydroxy-3-(4-((4-(morpholinomethyl)phenyl)ethynyl)phenethyl)pyrimidin-4(3H)-one] | 1 to 8 µg/mL (≈ 2.41 to 19.3 µM) | – | – | – | – | 8 to 32 µg/mL (≈ 19.3 to 77 µM) | 1 to 8 µg/mL (≈ 2.41 to 19.3 µM)
25 | N#CC(Cc1ccc(C#Cc2ccc(CN3CCOCC3)cc2)cc1)n1cncc(O)c1=O (stereo not drawn) [Compound 106] | 8 to 32 µg/mL (≈ 18.2 to 72.6 µM) | – | – | – | – | > 32 µg/mL | < 1 µg/mL
26 | CC(=O)C(Cc1ccc(C#Cc2ccc(CN3CCOCC3)cc2)cc1)n1cncc(O)c1=O (stereo not drawn) [Compound 107] | > 32 µg/mL | – | – | – | – | > 32 µg/mL | 8 to 32 µg/mL (≈ 17.5 to 69.9 µM)
27 | CC(O)C(Cc1ccc(C#Cc2ccc(CN3CCOCC3)cc2)cc1)n1cncc(O)c1=O (stereo not drawn) [Compound 108] | 8 to 32 µg/mL (≈ 17.4 to 69.6 µM) | – | – | – | – | > 32 µg/mL | 8 to 32 µg/mL (≈ 17.4 to 69.6 µM)
28 | CC(C)(O)C(Cc1ccc(C#Cc2ccc(CN3CCOCC3)cc2)cc1)c1nc[nH]c(=O)c1O (stereo not drawn) [Compound 112] | 1 to 8 µg/mL (≈ 2.11 to 16.9 µM) | – | – | – | – | 8 to 32 µg/mL (≈ 16.9 to 67.6 µM) | < 1 µg/mL
29 | O=c1[nH]cnc(CN(CCO)c2ccc(C#Cc3ccc(CN4CCOCC4)cc3)cc2)c1O [Compound 113] | > 32 µg/mL | – | – | – | – | > 32 µg/mL | > 32 µg/mL
30 | O=c1c(O)cccn1C(CO)Cc1ccc(C#Cc2ccc(CN3CCOCC3)cc2)cc1 (stereo not drawn) [Compound 114, 3-hydroxy-1-(1-hydroxy-3-(4-((4-(morpholinomethyl)phenyl)ethynyl)phenyl)propan-2-yl)pyridin-2(1H)-one] | 1 to 8 µg/mL (≈ 2.25 to 18 µM) | – | – | – | – | 8 to 32 µg/mL (≈ 18 to 72 µM) | 1 to 8 µg/mL (≈ 2.25 to 18 µM)
